The IC50 is the point on the concentration scale where inhibition reaches its midpoint. Low values mean greater potency, high ones weaker potency.

For this experiment, the target named is T1, human TLR7 (Homo sapiens, UniProt Q9NYK1).
T1 sequence (Q9NYK1 27-1049): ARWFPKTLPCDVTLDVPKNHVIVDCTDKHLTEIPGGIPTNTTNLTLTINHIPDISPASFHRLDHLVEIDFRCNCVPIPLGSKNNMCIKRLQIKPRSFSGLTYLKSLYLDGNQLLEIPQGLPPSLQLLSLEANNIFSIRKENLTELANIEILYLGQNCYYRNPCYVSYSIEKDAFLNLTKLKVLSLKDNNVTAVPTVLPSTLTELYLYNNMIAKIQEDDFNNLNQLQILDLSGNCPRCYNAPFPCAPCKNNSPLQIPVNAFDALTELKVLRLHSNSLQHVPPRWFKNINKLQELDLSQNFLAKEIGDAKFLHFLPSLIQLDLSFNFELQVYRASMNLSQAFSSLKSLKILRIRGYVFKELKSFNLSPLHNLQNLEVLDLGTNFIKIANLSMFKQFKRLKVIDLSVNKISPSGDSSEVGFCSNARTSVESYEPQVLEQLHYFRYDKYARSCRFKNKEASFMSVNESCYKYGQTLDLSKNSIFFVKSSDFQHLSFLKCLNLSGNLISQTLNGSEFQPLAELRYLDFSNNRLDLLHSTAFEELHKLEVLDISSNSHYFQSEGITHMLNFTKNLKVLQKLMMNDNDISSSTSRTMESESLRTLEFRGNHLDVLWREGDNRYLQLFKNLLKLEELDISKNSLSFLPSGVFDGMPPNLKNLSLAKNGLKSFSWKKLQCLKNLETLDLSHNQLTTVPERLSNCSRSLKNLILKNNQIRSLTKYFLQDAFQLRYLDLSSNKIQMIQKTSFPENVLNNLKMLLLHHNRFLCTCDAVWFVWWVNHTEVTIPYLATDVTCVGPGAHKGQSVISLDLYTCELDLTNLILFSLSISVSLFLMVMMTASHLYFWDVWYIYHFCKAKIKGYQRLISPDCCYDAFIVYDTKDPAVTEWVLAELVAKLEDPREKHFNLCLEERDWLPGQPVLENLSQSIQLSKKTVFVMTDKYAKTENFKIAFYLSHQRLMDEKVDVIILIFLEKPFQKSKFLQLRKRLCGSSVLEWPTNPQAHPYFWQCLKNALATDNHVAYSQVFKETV
The experiment is described as follows: HEK293-Blue-hTLR-7 cells assay (SEAP reporter, R848 stimulation). Type of experiment: cell-based. To be noted: HEK293-Blue-hTLR7 cells, R848 ligand, 20 h incubation. The method, then:
The following tests were carried out in order to determine the activity of the compounds of formula (I) in HEK293-Blue-hTLR-7/8/9 cells assay.
HEK293-Blue-hTLR-7 Cells Assay:
A stable HEK293-Blue-hTLR-7 cell line was purchased from InvivoGen (Cat. #: hkb-htlr7, San Diego, Calif., USA). These cells were originally designed for studying the stimulation of human TLR7 by monitoring the activation of NF-κB. A SEAP (secreted embryonic alkaline phosphatase) reporter gene was placed under the control of the IFN-β minimal promoter fused to five NF-κB and AP-1-binding sites. The SEAP was induced by activating NF-κB and AP-1 via stimulating HEK-Blue hTLR7 cells with TLR7 ligands. Therefore the reporter expression was declined by TLR7 antagonist under the stimulation of a ligand, such as R848 (Resiquimod), for incubation of 20 h. The cell culture supernatant SEAP reporter activity was determined using QUANTI-Blue™ kit (Cat. #: rep-qb1, Invivogen, San Diego, Calif., USA) at a wavelength of 640 nm, a detection medium that turns purple or blue in the presence of alkaline phosphatase.
HEK293-Blue-hTLR7 cells were incubated at a density of 250,000˜450,000 cells/mL in a volume of 170 μL in a 96-well plate in Dulbecco's Modified Eagle's medium (DMEM) containing 4.5 g/L glucose, 50 U/mL penicillin, […], […], 2 mM L-glutamine, 10% (v/v) heat-inactivated fetal bovine serum with addition of 20 μL test compound in a serial dilution in the presence of final DMSO at 1% and 10 μL of 20 uM R848 in above DMEM, perform incubation under 37° C. in a CO2 incubator for 20 h. Then 20 μL of the supernatant from each well was incubated with 180 μL Quanti-blue substrate solution at 37° C. for 2 h and the absorbance was read at 620-655 nm using a spectrophotometer. The signalling pathway that TLR7 activation leads to downstream NF-κB activation has been widely accepted, and therefore similar reporter assay was modified for evaluating TLR7 antagonist.
`C[C@@H]1CN(c2ccc(C#N)c3ncccc23)C[C@H](C2=Nc3cccc(N4CCNCC4)c3CN2)O1` [Example 6, 5-[(2R,6R)-2-methyl-6-(5-piperazin-1-yl-3,4-dihydroquinazolin-2-yl)morpholin-4-yl]quinoline-8-carbonitrile] showed an IC50 of 40 nM.

As for `C[C@@H]1CN(c2ccc(C#N)c3ncccc23)C[C@H](C2=Nc3cccc(N4CCN(C)CC4)c3CN2)O1` [Example 12, 5-[(2R,6R)-2-methyl-6-[5-(4-methylpiperazin-1-yl)-3,4-dihydroquinazolin-2-yl]morpholin-4-yl]quinoline-8-carbonitrile], it took 83 nM to reach half-maximal inhibition (IC50).

`C[C@@H]1CN(c2ccc(C#N)c3ncccc23)C[C@H](C2=Nc3cc(N4CCNCC4)ccc3CN2)O1` [Example 8, 5-[(2R,6R)-2-methyl-6-(7-piperazin-1-yl-3,4-dihydroquinazolin-2-yl)morpholin-4-yl]quinoline-8-carbonitrile]: half-maximal inhibition (IC50) required 18 nM.

Compound `C[C@@H]1CN(c2ccc(C#N)c3ncccc23)C[C@H](C2=Nc3cccc(N4CCC5(CCNC5)C4)c3CN2)O1` (stereo partly drawn) [Example 13, 5-[(2R,6R)-2-[5-(2,7-diazaspiro[4.4]nonan-2-yl)-3,4-dihydroquinazolin-2-yl]-6-methyl-morpholin-4-yl]quinoline-8-carbonitrile] had an IC50 of 294 nM.

As to `C[C@@H]1CN(c2ccc(C#N)c3ncccc23)C[C@H](C2=Nc3ccc(N4CCNCC4)cc3CCN2)O1` [Example 17, 5-[(2R,6R)-2-methyl-6-(7-piperazin-1-yl-4,5-dihydro-3H-1,3-benzodiazepin-2-yl)morpholin-4-yl]quinoline-8-carbonitrile], it took 362 nM to reach half-maximal inhibition (IC50).

As for `C[C@@H]1CN(c2ccc(C#N)c3ncccc23)C[C@H](C2=Nc3ccc(N4CCNCC4)cc3CN2)O1` [Example 7, 5-[(2R,6R)-2-methyl-6-(6-piperazin-1-yl-3,4-dihydroquinazolin-2-yl)morpholin-4-yl]quinoline-8-carbonitrile], the midpoint of inhibition, the IC50, lay at 12 nM.

In turn, `C[C@@H]1CN(c2ccc(C#N)c3ncccc23)C[C@H](C2=Nc3cccc(C4=CCNCC4)c3CCN2)O1` [Example 16, 5-[(2R,6R)-2-methyl-6-[6-(1,2,3,6-tetrahydropyridin-4-yl)-4,5-dihydro-3H-1,3-benzodiazepin-2-yl]morpholin-4-yl]quinoline-8-carbonitrile] came in with an IC50 of 251 nM.

As to `C[C@@H]1CN(c2ccc(C#N)c3ncccc23)C[C@H](C2=Nc3cccc(C4CCNCC4)c3CN2)O1` [Example 18, 5-[(2R,6R)-2-methyl-6-[5-(4-piperidyl)-3,4-dihydroquinazolin-2-yl]morpholin-4-yl]quinoline-8-carbonitrile], the IC50 is 130 nM.

`C[C@@H]1CN(c2ccc(C#N)c3ncccc23)C[C@H](C2=Nc3c(cccc3N3CCNCC3)CN2)O1` [Example 9, 5-[(2R,6R)-2-methyl-6-(8-piperazin-1-yl-3,4-dihydroquinazolin-2-yl)morpholin-4-yl]quinoline-8-carbonitrile] yielded an IC50 of 36 nM.

Source of the values: patent US11548884B2, “Cyclic amidine compounds for the treatment of autoimmune disease” (Hoffmann-La Roche Inc., priority 2018, dated 2023).
